Reference: patent US20250346600A1, “TRICYCLIC DERIVATIVES AND RELATED USES” (MOMA Therapeutics, Inc., priority 2023, published 2025)

Legend:
[1] = target: Full length WRN protein (aa 2-1432) (Homo sapiens (Human), UniProt Q14191); experiment: WRN ATPase ADP-Glo biochemical assay, Assay Format B (100 μM ATP); details: 0.25 nM WRN, 100 nM C6.18 ssDNA, 60 min preincubation, read-out: ATPase ADPGlo AC50 (uM)- Assay Format B
HCT116 cells = experiment: HCT116 (MSI) 7 day viability, CellTiter Glo; type: cell-based; details: Homo sapiens, HCT-116, 168 h, 7 days, read-out: HCT116 (MSI) Viability 7 Day Abs AC50
Method: (§1) Compounds were dissolved in DMSO to a concentration of 10 mM. Compounds were then serially diluted in 10 3-fold steps in DMSO using an EVO (Tecan). Plates were then spun down for 1 minute at 1,000 RPM at room temperature.
(§2) The colon carcinoma lines HCT116 (RRID: CVCL_0291) and HT29 (RRID: CVCL_0320) were obtained from ATCC. […] All cells were maintained at 37° C. with 5% CO2 incubator.
(§3) After harvesting, cells were spun down for 5 minutes at 1200 RPM. Cells were resuspended in 10 mL of growth media and counted using Countess (Thermo Fisher). Cell concentrations were adjusted to 50 cells/well for HCT116 and 500 cells/well for HT29. 50 μL of diluted cells were added to compound treated 384 well plates using a 12 channel, 300 uL electronic handheld pipette (Integra). Cell treated plates were placed in 37 C with 5% CO2 incubator for 7 days.
(§4) Afterwards, cells were removed from incubator and equilibrated to room temperature for 15 minutes. 35 uL of CellTiter Glo (Promega #G7573) reagent were added to each well using a 12 channel, 300 uL electronic handheld pipette (Integra). Plates were incubated for 20 minutes at room temperature. Luminescence quantification was performed using Envision (PerkinElmer).
(§5) For data analysis, the assay background signal was determined in wells containing medium, but no cells. Potencies were calculated by linear least squares fit to the four-parameter logistic IC50 equation. The reported IC50 values are the geometrical mean of at least 2 independent replicates.

HT29 cells = experiment: HT29 (MSS) 7 day viability, CellTiter Glo; type: cell-based; details: Homo sapiens, HT-29, 168 h, 7 days, read-out: HT29 (MSS) Viability 7 Day CTGAbs AC50
Method: as §1, §2, §3, §4, §5

Chain of Full length WRN protein (aa 2-1432) (Q14191 2-1432): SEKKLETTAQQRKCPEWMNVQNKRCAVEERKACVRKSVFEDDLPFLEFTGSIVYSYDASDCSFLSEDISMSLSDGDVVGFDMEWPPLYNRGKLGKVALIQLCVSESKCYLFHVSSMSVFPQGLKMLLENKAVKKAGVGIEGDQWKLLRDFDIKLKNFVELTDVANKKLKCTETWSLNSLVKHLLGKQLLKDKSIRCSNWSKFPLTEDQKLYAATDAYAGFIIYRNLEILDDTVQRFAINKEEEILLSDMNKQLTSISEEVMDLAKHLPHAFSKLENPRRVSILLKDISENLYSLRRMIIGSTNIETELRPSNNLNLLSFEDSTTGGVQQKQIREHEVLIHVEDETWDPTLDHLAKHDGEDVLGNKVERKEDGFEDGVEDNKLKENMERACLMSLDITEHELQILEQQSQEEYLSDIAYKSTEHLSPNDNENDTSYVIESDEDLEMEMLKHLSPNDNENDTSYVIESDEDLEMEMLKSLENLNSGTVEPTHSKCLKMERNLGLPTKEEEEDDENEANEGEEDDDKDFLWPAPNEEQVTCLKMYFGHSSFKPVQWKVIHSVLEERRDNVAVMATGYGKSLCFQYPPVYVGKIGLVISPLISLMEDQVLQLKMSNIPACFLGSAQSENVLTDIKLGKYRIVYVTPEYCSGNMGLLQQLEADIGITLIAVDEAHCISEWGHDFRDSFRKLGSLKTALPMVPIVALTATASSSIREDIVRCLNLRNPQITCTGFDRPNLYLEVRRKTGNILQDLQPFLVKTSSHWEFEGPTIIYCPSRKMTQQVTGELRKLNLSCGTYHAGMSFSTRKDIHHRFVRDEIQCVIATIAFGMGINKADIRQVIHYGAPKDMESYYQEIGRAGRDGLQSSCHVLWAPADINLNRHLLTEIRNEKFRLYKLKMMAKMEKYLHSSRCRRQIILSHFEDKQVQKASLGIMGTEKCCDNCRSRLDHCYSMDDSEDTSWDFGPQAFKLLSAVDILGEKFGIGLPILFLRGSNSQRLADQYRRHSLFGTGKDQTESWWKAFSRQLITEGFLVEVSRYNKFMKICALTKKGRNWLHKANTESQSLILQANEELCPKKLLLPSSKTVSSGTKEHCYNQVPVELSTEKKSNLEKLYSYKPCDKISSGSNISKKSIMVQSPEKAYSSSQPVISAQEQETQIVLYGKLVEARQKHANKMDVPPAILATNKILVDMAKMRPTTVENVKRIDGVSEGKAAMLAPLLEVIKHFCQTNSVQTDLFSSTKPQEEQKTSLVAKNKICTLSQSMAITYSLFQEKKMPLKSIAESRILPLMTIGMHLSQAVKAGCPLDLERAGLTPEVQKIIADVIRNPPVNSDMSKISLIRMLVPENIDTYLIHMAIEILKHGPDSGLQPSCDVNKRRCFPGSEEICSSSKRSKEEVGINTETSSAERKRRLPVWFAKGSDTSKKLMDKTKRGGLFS

| AC50 [1] [µM] | SMILES | AC50 (HCT116 cells) [nM] | AC50 (HT29 cells) [nM] |
| --- | --- | --- | --- |
| 0.005 to 0.015 | C=CC(=O)N1CCc2nn(-c3ccc(C4CC4)cc3O)c3c2C(C1)N(C(=O)c1cnc(Br)cc1N)CC3 (stereo not drawn) [Compound 191, 1-(5-(4-amino-6-bromonicotinoyl)-2-(4-cyclopropyl-2-hydroxyphenyl)-2,3,4,5,5a,6,8,9-octahydro-7H-1,2,5,7-tetraazabenzo[cd]azulen-7-yl)prop-2-en-1-one] | 1 to 100 | > 3000 |
| 0.0015 to 0.005 | C=CC(=O)N1CCc2nn(-c3ccc(C4CC4)cc3O)c3c2C(C1)N(C(=O)c1c(N)cc(Br)c2nc[nH]c12)CC3 (stereo not drawn) [Compound 212, 1-(5-(6-amino-4-bromo-1H-benzo[d]imidazole-7-carbonyl)-2-(4-cyclopropyl-2-hydroxyphenyl)-2,3,4,5,5a,6,8,9-octahydro-7H-1,2,5,7-tetraazabenzo[cd]azulen-7-yl)prop-2-en-1-one] | 1 to 100 | > 3000 |
| 0.0015 to 0.005 | C=CC(=O)N1CCc2nn(-c3ccc(C4CCC4)cc3O)c3c2C(C1)N(C(=O)c1cnc(Br)cc1N)CC3 (stereo not drawn) [Compound 132, 1-(5-(4-amino-6-bromonicotinoyl)-2-(4-cyclobutyl-2-hydroxyphenyl)-2,3,4,5,5a,6,8,9-octahydro-7H-1,2,5,7-tetraazabenzo[cd]azulen-7-yl)prop-2-en-1-one] | 1 to 100 | > 3000 |

The remaining lines, values behind:

| SMILES | AC50 [1] [µM] | AC50 (HCT116 cells) [nM] | AC50 (HT29 cells) [nM] |
| --- | --- | --- | --- |
| C=CC(=O)N1CC2c3c(nn(-c4ccc(C5CC5)cc4)c3CCN2C(=O)c2cnc(C(F)(F)F)cc2N)C2(C1)CN(c1nnc(C)s1)C2 (stereo not drawn) [Compound 233, 1-(5′-(4-amino-6-(trifluoromethyl)nicotinoyl)-2′-(4-cyclopropylphenyl)-1-(5-methyl-1,3,4-thiadiazol-2-yl)-2′,3′,4′,5′,5a′,6′-hexahydro-1′,2′,5′,7′-tetraazaspiro[azetidine-3,9′-benzo[cd]azulen]-1′(9a′),2a′-dien-7′(8′H)-yl)prop-2-en-1-one] | > 0.055 | 100 to 250 | > 3000 |
| C=CC(=O)N1CCc2nn(-c3ccc(C4CC4)cc3)c3c2C(C1)N(C(=O)c1c(N)cc(Br)c2[nH]cnc12)CC3 (stereo not drawn) [Compound 188, 1-(5-(5-amino-7-bromo-1H-benzo[d]imidazole-4-carbonyl)-2-(4-cyclopropylphenyl)-2,3,4,5,5a,6,8,9-octahydro-7H-1,2,5,7-tetraazabenzo[cd]azulen-7-yl)prop-2-en-1-one] | 0.0015 to 0.005 | 1 to 100 | > 3000 |
| C=CC(=O)N1CCc2nn(-c3ccc(C4CCC4)cc3)c3c2C(C1)N(C(=O)c1ccc(C(F)(F)F)c2[nH]nc(N)c12)CC3 (stereo not drawn) [Compound 147, 1-(5-(3-amino-7-(trifluoromethyl)-1H-indazole-4-carbonyl)-2-(4-cyclobutylphenyl)-2,3,4,5,5a,6,8,9-octahydro-7H-1,2,5,7-tetraazabenzo[cd]azulen-7-yl)prop-2-en-1-one] | 0.005 to 0.015 | 1 to 100 | > 3000 |
| C=CC(=O)N1CCc2nn(-c3ccc(C4CCC4)c(F)c3N)c3c2C(C1)N(C(=O)c1cnc(C(F)(F)F)c(O)c1)CC3 (stereo not drawn) [Compound 71, 1-(2-(2-amino-4-cyclobutyl-3-fluorophenyl)-5-(5-hydroxy-6-(trifluoromethyl)nicotinoyl)-2,3,4,5,5a,6,8,9-octahydro-7H-1,2,5,7-tetraazabenzo[cd]azulen-7-yl)prop-2-en-1-one] | 0.005 to 0.015 | 1 to 100 | > 3000 |
| C=CC(=O)N1CC(OC2CC(C#N)C2)c2nn(-c3ccc(C4CC4)cc3O)c3c2C(C1)N(C(=O)c1cnc(C(F)(F)F)cc1N)CC3 (stereo not drawn) [Compound 222, 3-((7-acryloyl-5-(4-amino-6-(trifluoromethyl)nicotinoyl)-2-(4-cyclopropyl-2-hydroxyphenyl)-3,4,5,5a,6,7,8,9-octahydro-2H-1,2,5,7-tetraazabenzo[cd]azulen-9-yl)oxy)cyclobutane-1-carbonitrile] | 0.0015 to 0.005 | 1 to 100 | > 3000 |
